Columns and labels:
Brd4 = assay: Western blot, MCF7 and 22RV1 cells, Brd4; assay type: cell-based; settings: MCF7 (with or without E2) or 22RV1 (with or without DHT), 24 h
Procedure: (§1) Western blot analysis was used to determine the protein expression using protein specific antibodies. β-actin or histone 3 was used to normalize protein loading.
(§2) Total cell lysis was conducted using 2×SDS sample buffer (62.5 mM Tris-HCl, 2% SDS, 10% glycerol, 50 mM DTT, and 0.05% bromophenol blue). The samples were sonicated for 10 s to shear DNA. Cell nuclei were isolated using Tris buffer saline with 0.4% NP40. Cell extracts were then electrophoresed through 10% SDS-polyacrylamide gels and transferred to 0.2 μm nitrocellulose membranes (Bio-Rad Laboratories, Hercules, Calif.) with a Miniprotein II transferring apparatus (Bio-Rad). The membranes were blocked and probed in TBS-T buffer (1×TBS buffer, 0.2% Tween 20) containing 5% non-fat milk. […] Enhanced chemiluminescence reagents (Perkin-Elmer Life Science Products, Boston, Mass.) were used to visualize the immunoreactive bands and the densities of protein bands were scanned analyzed using ImageJ software from the NIH.

GR (stimulated with DEX) = biological target: T1, GR (stimulated with DEX) (Homo sapiens, UniProt P04150); assay: GR driven luciferase activity (DEX) in LNCaP-GR cells; assay type: cell-based; settings: LNCaP-GR luciferase reporter cells
T1 construct: expressed in transfected cells; host or cells: LNCaP (LNCaP-GR)
Procedure: Both LNCaP and GR overexpressing LNCaP cells were carrying luciferase reporters with AR response elements.
(§3) Reporter cells were treated with herbal extracts at 30, 100, 300, and 1000 μg/ml for 24 h in a 37° C.-CO2 incubator. DHT (25 nM) was used to stimulate androgen receptor activity. Dexamethasone (50 nM) was used to stimulate glucocorticoid receptor activity Cells were lysed using luciferase lysis buffer after which luciferase buffer with luciferin was added to generate luminescence. Luminescence was recorded using a luminescence microplate reader.

[1] = tested on: histone 2AX serine 139 phosphorylation; assay: Western blot, MCF7 cells, H2AX-ser139; assay type: cell-based; settings: presence or absence of E2, 24 h
Procedure: (§4) Western blot analysis was used to determine the protein expression using protein specific antibodies.
as §2, with “milk. Monoclonal rabbit anti-AR (1:5000), was used to detect androgen receptor (Abcam #133273), Glucocorticoid Receptor (D8H2) XP® Rabbit mAb #3660, ERa Antibody (F-10): sc-8002, BRD4 (E2A7X) Rabbit mAb #13440, Brd2 (D89B4) Rabbit mAb #5848, PARP (46D11) Rabbit mAb #9532, Acetyl-Histone H3 (Lys27) (D5E4) XP® Rabbit mAb #8173 and a monoclonal actin antibody diluted 1:2500 (Sigma, St. Louis, Mo.) was used to detect β-actin as the internal control to confirm equal protein loading.” for “milk.”

22RV1 tumor = assay: Inhibition of 22RV1 prostate cancer growth in nude mice; assay type: in vivo; settings: equivalent dose to Y1830 (2.2 mg/kg, PO, B.I.D.), 11 days
Procedure: 22RV1 prostate cancer cells 5×10^6 cells in 100 μl Matrigel were injected subcutaneously into 10 week old male NCR nude mice. When 22RV1 tumor reached 5 mm×5 mm, mice were orally fed with Y1830 (water extract, 500 mg/kg, PO, B.I.D, N5) and RGA (or the fraction comprising RGA) (equivalent dose to Y1830: 2.2 mg/kg, PO, B.I.D.) for 11 days. Tumor volume was estimated by using the formula length×width^2/2.
When tumors reached 5 mm×5 mm, Y1830 water extract (500 mg/kg, BID, PO) and RGA (or the fraction comprising RGA) at equivalent dose to Y1830 were used to treat animals for 11 days. […] Therefore, it is further concluded that compounds other than molecules in RGA containing fraction of Y1830 total extract may also have anti-tumor activity or prevent tumor to develop drug resistant.

[2] = biological target: T2, glucocorticoid receptor (GR) (Homo sapiens, UniProt P04150); assay: PSA-luciferase reporter assay, DEX induced, 22RV1 cells; assay type: cell-based; parameters: endogenous in cells; settings: 22RV1 PSA-luciferase reporter cells
Procedure: as §3

Gata3 = assay: Western blot, MCF7 cells, Gata3; assay type: cell-based; settings: 24 h
Procedure: as §4
as §2, with “milk. Monoclonal rabbit anti-AR (1:5000), was used to detect androgen receptor (Abcam #133273), Glucocorticoid Receptor (D8H2) XP® Rabbit mAb #3660, ERa Antibody (F-10): sc-8002, BRD4 (E2A7X) Rabbit mAb #13440, Brd2 (D89B4) Rabbit mAb #5848, PARP (46D11) Rabbit mAb #9532, Acetyl-Histone H3 (Lys27) (D5E4) XP® Rabbit mAb #8173 and a monoclonal actin antibody diluted 1:2500 (Sigma, St. Louis, Mo.) was used to detect β-actin as the internal control to confirm equal protein loading.” for “milk.”

tumor protein p53 = assay: Western blot, MCF7 cells, p53; assay type: cell-based; settings: wt MCF7 cells, 24 h
Procedure: as §4
as §2, with “milk. Monoclonal rabbit anti-AR (1:5000), was used to detect androgen receptor (Abcam #133273), Glucocorticoid Receptor (D8H2) XP® Rabbit mAb #3660, ERa Antibody (F-10): sc-8002, BRD4 (E2A7X) Rabbit mAb #13440, Brd2 (D89B4) Rabbit mAb #5848, PARP (46D11) Rabbit mAb #9532, Acetyl-Histone H3 (Lys27) (D5E4) XP® Rabbit mAb #8173 and a monoclonal actin antibody diluted 1:2500 (Sigma, St. Louis, Mo.) was used to detect β-actin as the internal control to confirm equal protein loading.” for “milk.”

[3] = biological target: T2, glucocorticoid receptor (GR); assay: PSA-luciferase reporter assay, DEX induced, PC3 cells; assay type: cell-based; parameters: Western blot analysis for AR and GR protein expression in LNCaP, 22RV1 and PC3 cells; endogenous in cells; host or cells: PC3
Procedure: as §3

[4] = tested on: SGK1 mRNA (target gene of GR); assay: qRT-PCR of DEX induced SGK1 mRNA; assay type: cell-based; settings: 22RV1 or PC3 cells
Description: FIGS. 5D-5E are graphs showing the effect of Y1830, RG (or the fraction comprising RG), and RGA (or the fraction comprising RGA) on the DEX induced glucocorticoid receptor mediated transcriptional response of 22RV1 and PC3 PSA-luciferase reporter cells. FIGS. 5F-5G are graphs showing the effect of Y1830 on SGK1 (target gene of GR) mRNA expression with or without DEX using qRT-PCR.
(§5) RNA was extracted from herb treated cells using the Roche High Pure RNA isolation kit. cDNA was then generated from RNA samples using a Bio-rad iScript Advanced cDNA synthesis kit for RT-qPCR. qPCR was performed using human NRF2, H01, NQO1 and β-actin primers (Table 1) and iTaq™ Universal SYBR® Green Supermix in a CFX PCR machine (Bio-rad). Relative mRNA expression was calculated based on the change of the threshold cycle relative to the internal control, β-actin, using a standard curve generated by purified PCR products.

H3K9 acetylation = assay: Western blot, MCF7 and 22RV1 cells, H3K9 acetylation; assay type: cell-based; settings: MCF7 and 22RV1 cells (FIGS. 11A-11B), 24 h
Procedure: as §1, §2

PSA mRNA = assay: qRT-PCR of PSA mRNA in 22RV1 cells; assay type: cell-based, Human; settings: 22RV1 cells treated overnight, normalized to beta-actin
Procedure: FIGS. 4C-4D are graphs showing the effect of Y1830, RG (or the fraction comprising RG) and RGA (or the fraction comprising RGA) on the mRNA of PSA (FIG. 4C) and KLK2 (FIG. 4D). 22RV1 cells were treated with Y1830, RGA or RG overnight and mRNA was extracted for qRT-PCR to determine the mRNA expression level of PSA and KLK2 as normalized to beta-actin.
as §5

T2 sequence (P04150 whole entry): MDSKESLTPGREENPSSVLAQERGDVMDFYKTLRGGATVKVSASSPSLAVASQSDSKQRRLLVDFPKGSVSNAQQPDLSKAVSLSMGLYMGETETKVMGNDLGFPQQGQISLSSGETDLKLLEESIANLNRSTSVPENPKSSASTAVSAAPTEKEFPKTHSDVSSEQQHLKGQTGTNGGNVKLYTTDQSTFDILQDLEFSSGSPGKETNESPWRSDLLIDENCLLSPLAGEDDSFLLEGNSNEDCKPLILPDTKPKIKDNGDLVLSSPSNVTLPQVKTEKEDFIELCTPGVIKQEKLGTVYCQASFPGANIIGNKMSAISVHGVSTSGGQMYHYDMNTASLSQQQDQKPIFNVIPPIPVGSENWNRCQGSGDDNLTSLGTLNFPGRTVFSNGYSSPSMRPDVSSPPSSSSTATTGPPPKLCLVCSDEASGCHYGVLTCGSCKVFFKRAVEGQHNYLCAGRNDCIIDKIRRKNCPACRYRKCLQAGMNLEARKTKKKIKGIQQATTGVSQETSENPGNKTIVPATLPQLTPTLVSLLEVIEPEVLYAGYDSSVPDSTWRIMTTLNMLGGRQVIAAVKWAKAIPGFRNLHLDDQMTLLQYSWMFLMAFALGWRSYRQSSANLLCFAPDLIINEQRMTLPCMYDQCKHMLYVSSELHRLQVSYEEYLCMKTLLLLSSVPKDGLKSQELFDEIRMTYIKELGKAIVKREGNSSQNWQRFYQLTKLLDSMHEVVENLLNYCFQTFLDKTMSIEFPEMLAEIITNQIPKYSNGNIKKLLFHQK
T1 sequence (P04150 whole entry): as above

For CC(=O)OCC1OC(Oc2cc3c(c(O)c2C)C(=O)c2ccc(O)cc2C3=O)C(OC2OC(C)C(O)C(O)C2O)C(O)C1O [RGA, 1,3,6-Trihydroxy-2-methyl-9,10-anthracenedione 3-O-[α-L-Rhamnopyranosyl-(1→2)-6-O-acetyl-β-D-glucopyranoside]], the Brd4 protein expression (Brd4) was “decreased”, the “inhibition of DEX induced transcriptional response” value (GR (stimulated with DEX)) was “effectively inhibit” and the “histone 2AX serine 139 phosphorylation” value [1] was “triggered”. The “inhibition on 22RV1 tumor growth” value (22RV1 tumor) was “significant inhibition on 22RV1 tumor growth from day 2 to day 6”, the “inhibitory effect on DEX induced transcriptional response” value [2] was “inhibitory effect” and the Gata3 protein expression (Gata3) was “downregulation”. The p53 protein expression (tumor protein p53) was “downregulated”, the “inhibitory effect on DEX induced transcriptional response” value [3] was “inhibitory effect” and the “inhibition of DEX induced SGK1 mRNA expression” value [4] was “inhibited”. The H3K9 acetylation (H3K9 acetylation) was “did not have a large impact”.

Cc1c(OC2OC(CO)C(O)C(O)C2OC2OC(C)C(O)C(O)C2O)cc2c(c1O)C(=O)c1ccc(O)cc1C2=O [RG, 1,3,6-Trihydroxy-2-methyl-9,10-anthracenedione 3-O-[α-L-Rhamnopyranosyl-(1→2)-β-D-glucopyranoside]] was tested, and the “inhibition of mRNA expression of PSA” value (PSA mRNA) was “did not demonstrate this level of activity”.

Reference: patent US20210196779A1, “Compositions and Methods for Treating Steroid Hormone-Related Diseases or Disorders” (YALE UNIVERSITY, priority 2018, published 2021)
